Results: patent publication US20230295133A1, “PROCESS FOR PREPARING A COMPOUND USEFUL TO TREAT MYCOSES” (PULMOCIDE LIMITED, priority 2014, published 2023)
Converted amounts (≈) assume the structure as drawn.

What was measured:
Assay type in all cases: cell-based
[1] = system: Aspergillus fumigatus (NCPF2010); assay: Resazurin-microtitre assay of planktonic fungus growth; details: Aspergillus fumigatus NCPF2010; resazurin-microtitre assay
Protocol: This assay was conducted using a modified, published method (Monteiro et al., 2012). Spores of aspergillus fumigatus (NCPF2010, Public Health England, Wiltshire) were cultured in Sabouraud dextrose agar for 3 days. A stock spore suspension was prepared from a Sabouraud dextrose agar culture by washing with PBS-tween (10 mL; PBS containing 0.05% Tween-20, 100 U/mL Penicillin and 100 U/mL Streptomycin). The spore count was assessed using a Neubauer haemocytometer and, using PBS adjusted to 10^6 spores/mL. A working suspension of spores (10^4 spores/mL) was prepared in filter sterilised MOPS RPMI-1640 (50 mL; RPMI-1640 containing 2 mM L-glutamine, 2% glucose and 0.165 M MOPS, buffered to pH 7 with NaOH). Resazurin sodium salt (100 µL of 1% solution; Sigma-Aldrich, Dorset, UK) was added to the spore suspension and mixed well. The spore suspension-resazurin mixture (100 µL/well) was added to 384-well plates (Catalogue number 353962, BD Falcon, Oxford, UK).
Simultaneously, test compounds (0.5 µL DMSO solution) were added to 100 µL of the spore-resazurin mixture in quadruplicate to provide a final DMSO solution of 0.5% using an Integra VIAFLO 96 (Intergra, Zizers, Switzerland). For non-spore control wells, MOPS-RPMI-resazurin solution (100 µL) was added instead of the spore-resazurin mixture. The plate was covered with a Breathe Easier membrane (Catalogue No Z763624, Sigma-Aldrich, Dorset, UK), and incubated (35° C., 5% CO2) until fluorescence in the inoculated wells was double that of the control wells (around 24 hr). The fluorescence of each well (545 nm (excitation) / 590 nm (emission), gain 800, focal height 5.5 mm) was determined using a multi-scanner (Clariostar: BMG, Buckinghamshire, UK). The percentage inhibition for each well was calculated and the MIC50, MIC75 and MIC90 values were calculated from the concentration-response curve generated for each test compound.

[2] = system: Aspergillus fumigatus L98H (TR34/L98H); assay: Broth microdilution assay (modified EUCAST); details: broth microdilution assay, n = 3
Outline: (§1)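 Spores from 3-day Sabouraud cultures (working suspension 2 × 10^5 spores/mL) were added to an equal volume of RPMI-1640 (2 mM L-glutamine, 0.5% BSA, 2% glucose, 0.165 M MOPS, pH 7) containing compound, in quadruplicate. After 48 hr at 35 °C, OD530 gave percent inhibition. MIC50, MIC75 and MIC90 came from concentration-response curves.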

[3] = system: Aspergillus fumigatus NCPF2010; assay: Broth microdilution assay (modified EUCAST); details: broth microdilution assay, n = 3; read-out: MIC75 against Aspergillus fumigatus isolate NCPF2010
Outline: as §1

[4] = system: Aspergillus fumigatus NCPF7099; assay: Broth microdilution assay (modified EUCAST); details: n = 3, read-out: MIC75 against Aspergillus fumigatus isolate NCPF7099
Outline: as §1

[5] = system: Aspergillus fumigatus NCPF7100; assay: Broth microdilution assay (modified EUCAST); details: broth microdilution assay, n = 3

C[C@@H]1[C@H](O)[C@@H](C)/C=C/C=C/C=C/C=C/C=C/C=C/C=C/[C@H](O[C@@H]2O[C@H](C)[C@@H](O)[C@H](N)[C@@H]2O)C[C@@H]2O[C@](O)(C[C@@H](O)C[C@@H](O)[C@H](O)CC[C@@H](O)C[C@@H](O)CC(=O)O[C@H]1C)C[C@H](O)[C@H]2C(=O)O [Amphotericin B, reference compound]
MIC50 Planktonic fungal growth [1]: 0.0285 µM (≈ 0.0263 µg/mL) | MIC75 Planktonic fungal growth [1]: 0.0644 µM (≈ 0.0595 µg/mL) | MIC75 against Aspergillus fumigatus isolate L98H [2]: 0.209 µM (≈ 0.193 µg/mL) | MIC [3]: 0.382 µM (≈ 0.353 µg/mL) | MIC [4]: 0.365 µM (≈ 0.337 µg/mL) | MIC75 against Aspergillus fumigatus isolate NCPF7100 [5]: >1.08 µM
